In patent US20220211692A1, “Modulators of the Cystic Fibrosis Transmembrane Conductance Regulator Protein and Methods of Use” (AbbVie Global Enterprises Ltd., priority 2021, published 2022):
Read-outs that look alike come from different tables or passages of the source.

Experiments:
[1] = target: T1, F508del/F508del CFTR (Homo sapiens, UniProt P13569, DEL508-508); test: Trans-Epithelial Current Clamp (TECC) assay using primary human bronchial epithelial cells; type: cell-based; details: for Emax (% Dual): maximum percent activity relative to positive control (co-corrector 0.15 μM + potentiator 0.45 μM = 100%); for EC50: primary hBE cells F508del/F508del, test corrector with co-corrector and potentiator, 18-24 hours, equivalent CFTR current
T1 construct: cells isolated from CF patients with the homozygous mutation; endogenous in cells; host or cells: primary human bronchial epithelial (hBE) cells from CF patients homozygous for F508del
Outline: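 Readout is the equivalent CFTR current (IEQ, from offset-corrected VT and RT) plus AUC from forskolin peak to bumetanide addition, recorded on TECC-24 at 36.5° C. Beforehand, homozygous F508del hBE cultures received correctors with co-corrector and potentiator basolaterally for 18-24 h at 37° C.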

[2] = target: T2, F508delCFTR (Homo sapiens, UniProt P13569, DEL508-508); test: Cell Surface Expression-Horse Radish Peroxidase (CSE-HRP) assay in CFBE41o-F508delCFTR-HRP cells; type: cell-based; details: for EC50: CFBE41o-F508delCFTR-HRP cells, 18-24 hours at 33° C.; for Emax: read-out: Maximum % activity (without co-corrector)
T2 construct: expressed in transfected cells; host or cells: CFBE41o- human lung derived epithelial cell line, doxycycline-induced expression
Outline: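 Doxycycline (0.5 μg/mL) induced HRP-tagged F508delCFTR in CFBE41o- cells for 68-72 h at 37 °C; compounds ± co-corrector (2 μM) then ran 18-24 h at 33 °C, 8-point 3-fold series from 20 or 30 μM. After DPBS washes, surface HRP was read by luminol luminescence. Activity was normalised to the on-plate positive control versus DMSO, and EC50 was fitted by variable-slope sigmoid from triplicate plates.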

[3] = with co-corrector 2 μM, read-out: EC50 (with co-corrector)
[4] = without co-corrector, read-out: EC50 (without co-corrector)
[5] = without co-corrector, normalized to on-plate positive control

T1 sequence (P13569 with tags, fused parts or gaps DEL508-508): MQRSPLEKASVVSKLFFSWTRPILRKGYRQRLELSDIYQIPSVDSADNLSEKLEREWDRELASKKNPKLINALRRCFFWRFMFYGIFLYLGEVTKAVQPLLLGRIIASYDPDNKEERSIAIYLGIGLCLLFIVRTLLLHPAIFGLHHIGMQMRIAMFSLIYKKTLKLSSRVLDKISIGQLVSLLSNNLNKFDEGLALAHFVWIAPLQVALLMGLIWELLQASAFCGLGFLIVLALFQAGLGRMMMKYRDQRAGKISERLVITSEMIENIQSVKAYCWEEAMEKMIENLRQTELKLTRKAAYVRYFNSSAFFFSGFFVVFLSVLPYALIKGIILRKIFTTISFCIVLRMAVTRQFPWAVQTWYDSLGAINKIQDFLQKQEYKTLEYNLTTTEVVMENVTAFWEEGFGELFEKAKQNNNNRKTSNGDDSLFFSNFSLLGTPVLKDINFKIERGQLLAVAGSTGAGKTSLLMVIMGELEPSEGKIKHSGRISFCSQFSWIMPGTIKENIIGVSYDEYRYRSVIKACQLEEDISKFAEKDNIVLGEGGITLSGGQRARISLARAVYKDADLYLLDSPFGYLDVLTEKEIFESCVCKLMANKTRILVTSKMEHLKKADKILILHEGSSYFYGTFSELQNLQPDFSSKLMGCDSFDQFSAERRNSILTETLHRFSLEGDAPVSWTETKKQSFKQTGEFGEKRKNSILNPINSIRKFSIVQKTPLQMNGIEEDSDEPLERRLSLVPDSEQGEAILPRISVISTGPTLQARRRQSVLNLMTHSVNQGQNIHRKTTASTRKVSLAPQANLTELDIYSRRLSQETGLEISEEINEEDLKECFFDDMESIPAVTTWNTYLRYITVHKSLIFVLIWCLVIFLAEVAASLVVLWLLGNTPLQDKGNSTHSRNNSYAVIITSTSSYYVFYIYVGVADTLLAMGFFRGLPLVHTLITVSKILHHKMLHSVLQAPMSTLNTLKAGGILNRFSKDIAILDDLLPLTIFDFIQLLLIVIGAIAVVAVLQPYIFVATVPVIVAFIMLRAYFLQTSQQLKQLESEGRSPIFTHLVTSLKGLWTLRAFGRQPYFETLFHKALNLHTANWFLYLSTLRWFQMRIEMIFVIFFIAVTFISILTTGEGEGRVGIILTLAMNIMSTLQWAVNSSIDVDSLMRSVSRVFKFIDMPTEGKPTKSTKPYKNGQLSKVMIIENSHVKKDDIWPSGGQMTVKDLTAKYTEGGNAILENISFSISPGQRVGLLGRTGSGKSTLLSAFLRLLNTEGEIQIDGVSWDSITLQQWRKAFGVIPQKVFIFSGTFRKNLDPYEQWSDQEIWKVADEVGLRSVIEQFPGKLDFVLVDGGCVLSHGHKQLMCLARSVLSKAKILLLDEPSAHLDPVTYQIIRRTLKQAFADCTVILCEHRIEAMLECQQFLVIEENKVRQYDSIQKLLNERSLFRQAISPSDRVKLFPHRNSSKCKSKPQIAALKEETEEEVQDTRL
T2 sequence (P13569 with tags, fused parts or gaps DEL508-508): as above

| Structure (SMILES) | Emax (% Dual) [1] [% Dual] | EC50 [1] [nM] | EC50 [2, 3] [nM] | EC50 [2, 4] [nM] | Emax [2, 5] [%] | Maximum % activity (with co-corrector) ([2]; with co-corrector 2 μM, normalized to on-plate positive control) [%] |
| --- | --- | --- | --- | --- | --- | --- |
| COc1ccc(C)cc1[C@@]1(C(=O)NS(=O)(=O)c2cccc3nc(C)ccc23)CC[C@@H](c2ccccc2)O1 [Example 8, (2R,5S)-2-(2-methoxy-5-methylphenyl)-N-(2-methylquinoline-5-sulfonyl)-5-phenyloxolane-2-carboxamide] | 339 | 3.2 | 440 | 590 | 702 |  |
| COc1cccc([C@@H]2CO[C@@](C(=O)NS(=O)(=O)c3cccc4nc(C)ccc34)(c3cc(C)ccc3OC)C2)c1 [Example 42, (2R,4R)-2-(2-methoxy-5-methylphenyl)-4-(3-methoxyphenyl)-N-(2-methylquinoline-5-sulfonyl)oxolane-2-carboxamide] | 237 | 11.1 | 570 | 1120 | 751 |  |
| CCc1ccc(Oc2cccnc2OC(F)F)c([C@@]2(C(=O)NS(=O)(=O)c3cccc4nc(C)ccc34)CCCO2)c1 [Example 27, (2R)-2-(2-{[2-(difluoromethoxy)pyridin-3-yl]oxy}-5-ethylphenyl)-N-(2-methylquinoline-5-sulfonyl)oxolane-2-carboxamide] | 212 | 4.6 | 650 | 1470 | 709 |  |
| CCc1ccc(Oc2cccnc2OC(F)F)c(C2(C(=O)NS(=O)(=O)c3cccc4nc(C)ccc34)CCCO2)c1 (stereo not shown) [Example 21, 2-(2-{[2-(difluoromethoxy)pyridin-3-yl]oxy}-5-ethylphenyl)-N-(2-methylquinoline-5-sulfonyl)oxolane-2-carboxamide] | 199 | 11.8 | 1290 | 1540 | 857 |  |
| CCOc1ccc(C)cc1[C@@]1(C(=O)NS(=O)(=O)c2cccc3nc(C4CC4)ccc23)CCCO1 [Example 6, (2R)—N-(2-cyclopropylquinoline-5-sulfonyl)-2-(2-ethoxy-5-methylphenyl)oxolane-2-carboxamide] | 235 | 19.5 | 1000 | 1360 | 712 |  |

Other lines, results leading:

| Emax (% Dual) [1] [% Dual] | EC50 [1] [nM] | EC50 [2, 3] [nM] | EC50 [2, 4] [nM] | Emax [2, 5] [%] | Maximum % activity (with co-corrector) ([2]; with co-corrector 2 μM, normalized to on-plate positive control) [%] | Structure (SMILES) |
| --- | --- | --- | --- | --- | --- | --- |
| 305 | 38.3 | 3210 | 3630 | 217 | 573 | COc1ccc(C)cc1[C@]1(C(=O)NS(=O)(=O)c2cccc3nc(C)ccc23)C[C@H](c2ccccc2)CO1 [Example 37, (2S,4R)-2-(2-methoxy-5-methylphenyl)-N-(2-methylquinoline-5-sulfonyl)-4-phenyloxolane-2-carboxamide] |
| 274 | 19.4 | 270 | 760 | 872 |  | COc1ccc(C)cc1[C@@]1(C(=O)NS(=O)(=O)c2cccc3nc(N)ccc23)C[C@H](c2ccccc2)CO1 [Example 41, (2R,4R)—N-(2-aminoquinoline-5-sulfonyl)-2-(2-methoxy-5-methylphenyl)-4-phenyloxolane-2-carboxamide] |
| 255 | 31 | 810 | 1590 | 443 |  | COc1ccc(C)cc1[C@]1(C(=O)NS(=O)(=O)c2cccc3nc(C)ccc23)C[C@@H](c2ccccc2)CO1 [Example 36, (2S,4S)-2-(2-methoxy-5-methylphenyl)-N-(2-methylquinoline-5-sulfonyl)-4-phenyloxolane-2-carboxamide] |
| 158 | 17.1 | 1190 | 1110 | 542 |  | COc1ccc(C)cc1[C@]1(C(=O)NS(=O)(=O)c2cccc3nc(C)ccc23)CC[C@H](c2ccccc2)O1 [Example 11, (2S,5R)-2-(2-methoxy-5-methylphenyl)-N-(2-methylquinoline-5-sulfonyl)-5-phenyloxolane-2-carboxamide] |
